Assay results: paper PMC6346292 (Chemical Science, 2018)

Tests used:
[1] = target: T1, IL-8 (Homo sapiens, UniProt P10145); test: FP competition assay; assay type: binding; conditions: FP competition with probe 15 (table footnote)
T1 sequence (P10145 21-99): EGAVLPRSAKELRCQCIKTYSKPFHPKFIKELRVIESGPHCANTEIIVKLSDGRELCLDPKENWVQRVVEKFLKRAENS

[2] = system: antithrombine III (AT-III); conditions: cited from earlier work
[3] = target: T2, BMP-2 (Homo sapiens, UniProt P12643); test: FP competition assay; assay type: binding; conditions: FP competition with probe 15 (table footnote)
T2 sequence (P12643 283-396): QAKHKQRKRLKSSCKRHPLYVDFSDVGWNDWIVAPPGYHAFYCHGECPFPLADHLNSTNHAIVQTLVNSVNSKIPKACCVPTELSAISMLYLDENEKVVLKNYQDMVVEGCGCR

[4] = target: T3, Sclerostin (Homo sapiens, UniProt Q9BQB4); test: FP competition assay; assay type: binding; conditions: FP competition with probe 15 (table footnote)
T3 sequence (Q9BQB4 24-213): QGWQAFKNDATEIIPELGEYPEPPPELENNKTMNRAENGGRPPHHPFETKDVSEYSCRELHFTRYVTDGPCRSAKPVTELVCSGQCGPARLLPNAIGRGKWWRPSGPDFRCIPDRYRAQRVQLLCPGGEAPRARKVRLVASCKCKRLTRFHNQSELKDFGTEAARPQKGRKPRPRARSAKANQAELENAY

CO[C@H]1O[C@H](COS(=O)(=O)O)[C@@H](O[C@@H]2O[C@@H](C(=O)O)[C@@H](O[C@H]3O[C@H](COS(=O)(=O)O)[C@@H](O[C@@H]4O[C@H](C(=O)O)[C@@H](O[C@H]5O[C@H](COS(=O)(=O)O)[C@@H](O)[C@H](O)[C@H]5NS(=O)(=O)O)[C@H](O)[C@H]4O)[C@H](OS(=O)(=O)O)[C@H]3NS(=O)(=O)O)[C@H](O)[C@H]2OS(=O)(=O)O)[C@H](O)[C@H]1NS(=O)(=O)O [Fondaparinux, fondaparinux]
Kd [1]: 19 ± 2.5 µM
ligand affinity class [2]: nanomolar ligand
Kd [3]: 80.9 ± 8.5 µM
Kd [4]: 629 ± 335 µM
